From patent US11524934B2, “Phenylamine compounds” (PI INDUSTRIES LTD., priority 2017, dated 2022)

Key:
Alternaria solani = Alternaria solani (early blight of tomato/potato) in vitro test, radial growth on Potato Dextrose Agar; details: 168 h, read-out: control
Method: (§1) Compounds of present invention were assessed for activity against one or more of the following: Biological Test Examples, in vitro test

Colletotrichum capsici = Colletotrichum capsici (anthracnose) in vitro test, radial growth on Potato Dextrose Agar; details: Colletotrichum truncatum, 168 h, read-out: control
Method: Colletotrichum capsici (anthracnose): Compounds were dissolved in 0.3% DMSO & then added to Potato Dextrose Agar medium just prior to dispensing it into Petri dishes. 5 ml medium with compound in the desired concentration was dispensed into 60 mm sterile petri-plates. After solidification each plate was seeded with 5 mm size mycelial disc taken form periphery of actively growing virulent culture plate. Plates were incubated in growth chambers at 25° C. temperature & 60% Relative Humidity for seven days and radial growth was measured.

Botrytis cinerea = Botrytis cinerea (Gray mold) in vitro test, radial growth on Potato Dextrose Agar; details: 168 h, read-out: control
Method: as §1
Botrytis cinerea (Gray mold): Compounds were dissolved in 0.3% DMSO & then added to Potato Dextrose Agar medium just prior to dispensing it into Petri dishes. 5 ml medium with compound in the desired concentration was dispensed into 60 mm sterile Petri-plates. After solidification each plate was seeded with 5 mm size mycelial disc taken form periphery of actively growing virulent culture plate. Plates were incubated in growth chambers at 22° C. temperature & 90% Relative Humidity for seven days and radial growth was measured.

Rhizoctonia solani = details: 168 h, read-out: control
Method: Rhizoctonia solani (Rice sheath blight/Potato black scurf): Compounds were dissolved in 0.3% DMSO & then added to Potato Dextrose Agar medium just prior to dispensing it into Petri dishes. 5 ml medium with compound in the desired concentration was dispensed into 60 mm sterile Petri-plates. After solidification each plate was seeded with 5 mm size mycelial disc taken form periphery of actively growing virulent culture plate. Plates were incubated in growth chambers at 25° C. temperature & 60% Relative Humidity for seven days and radial growth was measured.

Septoria lycopersici = Septoria lycopersici (Leaf spot of tomato) in vitro test, radial growth on Potato Dextrose Agar; details: 168 h, read-out: control
Method: Septoria lycopersici (Leaf spot of tomato): Compounds were dissolved in 0.3% DMSO & then added to Potato Dextrose Agar medium just prior to dispensing it into Petri dishes. 5 ml medium with compound in the desired concentration was dispensed into 60 mm sterile petri-plates. After solidification each plate was seeded with 5 mm size mycelial disc taken form periphery of actively growing virulent culture plate. Plates were incubated in growth chambers at 25° C. temperature & 70% Relative Humidity for seven days and radial growth was measured.

Pyricularia oryzae = experiment: microbe, parasite or virus in culture; assay type: cell-based; details: 168 h, read-out: control
Phakopsora pachyrhizi = Phakopsora pachyrhizi test in soybean (in vivo on plants), preventive activity; details: preventive spray on soybean plants, inoculated one day after treatment, disease severity rated vs untreated check
Method: Example 8 (In Vivo on Plants): Phakopsora pachyrhizi Test in Soybean
Compounds were dissolved in 2% DMSO/Acetone & then mixed with water to the calibrated spray volume of 50 ml and poured into the spray bottles for further applications.
To test the preventive activity of compounds, healthy young soybean plants raised in the greenhouse were sprayed with active compound preparation at the stated application rates inside the spray cabinets using hallowcone nozzles. One day after treatment, the plants were inoculated with spore suspension containing 2.1×10^6 Phakopsora pachyrhizi inoculum. The inoculated plants were then kept in greenhouse chamber at 25° C. temperature & 90% Relative Humidity for disease expression.
A visual assessment of compound's performance was carried out by rating the disease severity (0-100% scale) on treated plants on 3, 7, 10 & 15 days after application. Efficacy (% control) of the compounds was calculated by comparing the disease rating in the treatment with the one of the untreated control. The sprayed plants were also assessed for compound's plant compatibility by recording symptoms like necrosis, chlorosis & stunting.

Fusarium culmorum = Fusarium culmorum (Foot rot of cereals) in vitro test, radial growth on Potato Dextrose Agar; assay type: cell-based; details: 168 h, read-out: control

Compound	inhibition of growth at 300 ppm (Alternaria solani)	inhibition of growth at 300 ppm (Colletotrichum capsici)	inhibition of growth at 300 ppm (Botrytis cinerea)	inhibition of growth at 300 ppm (Rhizoctonia solani)	inhibition of growth at 300 ppm (Septoria lycopersici)	inhibition of growth at 300 ppm (Pyricularia oryzae)	pest or weed control at 500 ppm (Phakopsora pachyrhizi)	inhibition of growth at 300 ppm (Fusarium culmorum)
CCN(C)C=Nc1cc(C)c(C(=O)CSc2cccc(Br)c2)cc1C [Compound 6, N′-(4-(2-((3-bromophenyl)thio)acetyl)-2,5-dimethylphenyl)-N-ethyl-N-methylformimidamide]	> 70%	> 70%	> 70%	> 70%	> 70%	> 70%	> 90%	
CCN(C)C=Nc1cc(C)c(C(=O)CSc2ccc(F)cc2)cc1C [Compound 28, N-ethyl-N′-(4-(2-((4-fluorophenyl)thio)acetyl)-2,5-dimethylphenyl)-N-methylformimidamide]	> 70%	> 70%	> 70%	> 70%	> 70%	> 70%		70%
CCN(C)C=Nc1cc(C)c(C(=O)COc2c(Cl)cccc2Cl)cc1C [Compound 86, N′-(4-(2-(2,6-dichlorophenoxy)acetyl)-2,5-dimethylphenyl)-N-ethyl-N-methylformimidamide]	> 70%	> 70%	> 70%	> 70%		> 70%		70%
CCN(C)C=Nc1cc(C)c(C(=O)COc2ccc(C)cc2)cc1C [Compound 15, N′-(2,5-dimethyl-4-(2-(p-tolyloxy)acetyl)phenyl)-N-ethyl-N-methylformimidamide]	> 70%	> 70%	> 70%	> 70%	> 70%	> 70%	> 90%	
CCN(C)C=Nc1cc(C)c(C(=O)COc2c(C)cccc2Cl)cc1C [Compound 91, N′-(4-(2-(2-chloro-6-methylphenoxy)acetyl)-2,5-dimethylphenyl)-N-ethyl-N-methylformimidamide]	> 70%	> 70%	> 70%	> 70%		> 70%		70%
CCN(C)C=Nc1cc(C)c(C(=O)C(C)(C)Sc2cccc(C)c2)cc1C [Compound 83, N′-(2,5-dimethyl-4-(2-methyl-2-(m-tolylthio)propanoyl)phenyl)-N-ethyl-N-methylformimidamide]	> 70%	> 70%	> 70%	> 70%		> 70%		70%
CCN(C)C=Nc1cc(C)c(C(=O)COc2cccc(F)c2)cc1C [Compound 9, N-ethyl-N′-(4-(2-(3-fluorophenoxy)acetyl)-2,5-dimethylphenyl)-N-methylformimidamide]	> 70%	> 70%	> 70%	> 70%	> 70%	> 70%	> 90%	
CCN(C)C=Nc1cc(C)c(C(=O)COc2c(C)cc(C)cc2Br)cc1C [Compound 89, N′-(4-(2-(2-bromo-4,6-dimethylphenoxy)acetyl)-2,5-dimethylphenyl)-N-ethyl-N-methylformimidamide]	> 70%	> 70%	> 70%	> 70%	> 70%	> 70%		
CCN(C)C=Nc1cc(C)c(C(=O)CN(C)c2ccc(C)cc2)cc1C [Compound 92, N′-(2,5-dimethyl-4-(N-methyl-N-(p-tolyl)glycyl)phenyl)-N-ethyl-N-methylformimidamide]	> 70%	> 70%		> 70%	> 70%	> 70%		
CCN(C)C=Nc1cc(C)c(C(=O)Cn2cnnc2)cc1C [Compound 114, N′-(4-(2-(4H-1,2,4-triazol-4-yl)acetyl)-2,5-dimethylphenyl)-N-ethyl-N-methylformimidamide]	> 70%	> 70%	> 70%	> 70%		> 70%		70%
Cc1cc(C(=O)COc2ccccc2Cl)c(C)cc1N=CN(C)C [Compound 109, N′-(4-(2-(2-chlorophenoxy)acetyl)-2,5-dimethylphenyl)-N,N-dimethylformimidamide]	> 70%	> 70%				> 70%		70%
CCN(C)C=Nc1cc(C)c(C(=O)CSc2cccc(OC)c2)cc1C [Compound 27, N-ethyl-N′-(4-(2-((3-methoxyphenyl)thio)acetyl)-2,5-dimethylphenyl)-N-methylformimidamide]	> 70%	> 70%	> 70%	> 70%	> 70%	> 70%		
CCN(C)C=Nc1cc(C)c(C(=O)CSc2cccc(F)c2)cc1C [Compound 4, N-ethyl-N′-(4-(2-((3-fluorophenyl)thio)acetyl)-2,5-dimethylphenyl)-N-methylformimidamide]	> 70%	> 70%	> 70%	> 70%	> 70%	> 70%	> 90%	
CCN(C)C=Nc1cc(C)c(C(=O)COc2cccc(Br)c2)cc1C [Compound 3, N′-(4-(2-(3-bromophenoxy)acetyl)-2,5-dimethylphenyl)-N-ethyl-N-methylformimidamide]	> 70%	> 70%	> 70%	> 70%	> 70%	> 70%		
CCN(C)C=Nc1cc(C)c(C(=O)CSc2ccc(Cl)cc2)cc1C [Compound 29, N′-(4-(2-((4-chlorophenyl)thio)acetyl)-2,5-dimethylphenyl)-N-ethyl-N-methylformimidamide]	> 70%		> 70%	> 70%	> 70%	> 70%		70%
CCN(C)C=Nc1cc(C)c(C(=O)CSc2cccc(C)c2)cc1C [Compound 5, N′-(2,5-dimethyl-4-(2-(m-tolylthio)acetyl)phenyl)-N-ethyl-N-methylformimidamide]	> 70%	> 70%	> 70%		> 70%	> 70%		70%
